According to patent publication US8829014B2, “Thiazole and thiophene analogues, and their use in treating autoimmune diseases and cancers” (Board of Supervisors of Louisiana State University and …, priority 2006, dated 2014):

Key:
NF-κB = NF-κB inhibitor screen: basal NF-κB-dependent luciferase expression in HEK/NF-κB cell line; format: cell-based; conditions: 1 uM; determined as described in Example 398; read-out: NFkB inhibition @ 1 uM
Source text: Development of NF-κB and AP-1 Screens: Two HEK293 cell lines were purchased from Panomics. One cell line was stably transfected with a plasmid in which luciferase expression is regulated by six copies of the NF-κB transcriptional element (5′-[…]-3′); and the other cell line was stably transfected with a plasmid in which luciferase expression is regulated by three copies of the AP-1 transcriptional element (TGACTAA). To test the biological activity of the promoters, the HEK/NF-κB cell line was stimulated with TNF-α (20 ng/ml) for 24 hours, and the HEK/AP-1 cell line was stimulated with PMA (10 ng/ml) for 24 hours. […] In addition, a pyrimidine carboxyimide that had previously been shown (ref. 58) to be an inhibitor of transcription mediated by NF-κB and AP-1 reduced luciferase activity by approximately 40% in each of the NF-κB and AP-1 cell lines.
The above two assays analyzed the effects of the compounds on post-transcriptional gene regulation, which is known to play a key role in cancer and inflammation. By contrast, the NF-κB assay and the following assay (AP-1) test whether the compounds act at the transcriptional level. Thirty-nine representative compounds were screened in an HEK/NF-κB cell line. HEK cells were stably transfected with a plasmid expressing luciferase under the control of the NF-κB promoter. These transfected cells were plated on a 96-well plate. As above, initial screening was carried out at 1.0 μM by adding compound in DMSO (0.3%) twenty-four hours after plating. Each compound was added to each of triplicate wells. DMSO (0.3%) was added to one set of wells as a control. Luciferase activity was determined using Promega's Brite-Glo kit, and the mean for each sample was normalized to that for DMSO.
The fourteen representative compounds identified in the eIF4E screen as interesting (Numbered 2, 3, 4, 6, 8, 11, 15, 20, 21, 24, 25, 32, 33, and 35) were then tested for luciferase activity in a six-point dose response (10 nM, 33 nM, 100 nM, 330 nM, 1000 nM, and 3300 nM). Screening was carried out as described above by monitoring the effects of the compounds on basal NF-κB-dependent luciferase expression. Each dose was used out in triplicate, and repeated between two and four times. Results were normalized by the average expression level at the lowest concentration level, as described above.

AP-1 = AP-1 inhibitor screen: basal AP-1-dependent luciferase expression in HEK/AP-1 cell line; format: cell-based; conditions: AP1; 1 uM; determined as described in Example 398
Source text: Development of NF-κB and AP-1 Screens: Two HEK293 cell lines were purchased from Panomics. One cell line was stably transfected with a plasmid in which luciferase expression is regulated by six copies of the NF-κB transcriptional element (5′-[…]-3′); and the other cell line was stably transfected with a plasmid in which luciferase expression is regulated by three copies of the AP-1 transcriptional element (TGACTAA). To test the biological activity of the promoters, the HEK/NF-κB cell line was stimulated with TNF-α (20 ng/ml) for 24 hours, and the HEK/AP-1 cell line was stimulated with PMA (10 ng/ml) for 24 hours.
HEK cells were stably transfected with a plasmid expressing luciferase under the control of the AP-1 promoter. The transfected cells were plated on a 96-well plate for 24 hr. Then 1.0 μM of each compound in DMSO (0.3%) was added to triplicate wells and incubated for 48 hr. DMSO (0.3%) was added to one set of triplicate wells as a control. Luciferase activity was determined using Promega's Brite-Glo kit, and the mean for each sample was normalized to that for DMSO.
Screening was carried out as described above, monitoring the compounds' effects on basal AP-1-dependent luciferase expression. Each dose-response experiment was carried out in triplicate and repeated between two and four times.

Compound | melting point [°C] | inhibition at 1 µM (NF-κB) [%] | inhibition at 1 µM (AP-1) [%]
COC(=O)Nc1nc(-c2ccccc2)c(-c2nc3ccccc3c(=O)n2-c2ccccc2C)s1 [Example 172, [5-(4-Oxo-3-o-tolyl-3,4-dihydro-quinazolin-2-yl)-4-phenyl-thiazol-2-yl]-carbamic acid methyl ester] | > 275 | 0 | 25
CNc1nc(C)c(-c2nc3ccccc3c(=O)n2-c2cccc(C)c2)s1 [Example 181, 2-(4-methyl-2-methylamino-thiazol-5-yl)-3-m-tolyl-3H-quinazolin-4-one] | > 275 | 10 | 20
Cc1cccc(-n2c(-c3sc(Nc4ccc(Cl)cc4)nc3C)nc3ccccc3c2=O)c1 [Example 183, 2-[2-(4-Chlorophenylamino)-4-methyl-thiazol-5-yl]-3-m-tolyl-3H-quinazolin-4-one] | 236 to 238 | 2 | 39
CNc1nc(-c2ccccc2)c(-c2nc3ccccc3c(=O)n2-c2cccc(C)c2)s1 [Example 186, 2-(2-methylamino-4-phenyl-thiazol-5-yl)-3-m-tolyl-3H-quinazolin-4-one] | 186 to 187 | 23 | 10
Cc1cccc(-n2c(-c3sc(NC(=O)c4ccccc4)nc3-c3ccccc3)nc3ccccc3c2=O)c1 [Example 188, N-[5-(4-Oxo-3-m-tolyl-3,4-dihydro-quinazolin-2-yl)-4-phenyl-thiazole-2-yl]benzamide] | > 275 | 42 | 63
Cc1ccc(-n2c(-c3sc(Nc4ccccc4)nc3-c3ccccc3)nc3ccccc3c2=O)cc1 [Example 196, 3-p-Tolyl-2-(4-phenyl-2-phenylamino-thiazol-5-yl)-3H-quinazolin-4-one] | 225 to 228 | 38 | 10
Cc1nc(Nc2ccccc2)sc1-c1nc2ccccc2c(=O)n1-c1ccccc1Cl [Example 229, 2-(4-Methyl-2-phenylamino-thiazol-5-yl)-3-(2-chloro-phenyl)-3H-quinazolin-4-one] | 228 to 229 | 6 | 21
COC(=O)Nc1nc(-c2ccccc2)c(-c2nc3ccccc3c(=O)n2-c2ccccc2Cl)s1 [Example 232, [5-(4-Oxo-3-(2-chloro-phenyl)-3,4-dihydro-quinazolin-2-yl)-4-phenyl-thiazol-2-yl]-carbamic acid methyl ester] | > 275 | 55 | 67
CC(=O)c1ccc(-n2c(-c3sc(Nc4ccccc4)nc3C)nc3ccccc3c2=O)cc1 [Example 262, 2-(4-Methyl-2-phenylamino-thiazol-5-yl)-3-(4-acetyl-phenyl)-3H-quinazolin-4-one] | 271 to 273 | 15 | 7

Continued, in another order:

melting point [°C] | Compound | inhibition at 1 µM (NF-κB) [%] | inhibition at 1 µM (AP-1) [%]
> 275 | Cc1ccc(C(=O)Nc2nc(-c3ccccc3)c(-c3nc4ccccc4c(=O)n3-c3ccccc3C)s2)cc1 [Example 176, 4-Methyl-N-[5-(4-oxo-3-o-tolyl-3,4-dihydroquinazolin-2-yl)-4-phenyl-thiazol-2-yl]-benzamide] | -8 | 29
195 to 196 | COc1cccc(-n2c(-c3sc(NC(=O)c4ccccc4)nc3-c3ccccc3)nc3ccccc3c2=O)c1 [Example 214, N-[5-(4-Oxo-3-(3-methoxyphenyl)-3,4-dihydro-quinazolin-2-yl)-4-phenyl-thiazole-2-yl]benzamide] | 34 | 30
> 275 | Cc1ccc(C(=O)Nc2nc(-c3ccccc3)c(-c3nc4ccccc4c(=O)n3-c3ccc(Cl)cc3)s2)cc1 [Example 254, 4-Methyl-N-[5-(4-oxo-3-(4-Chloro-phenyl)-3,4-dihydroquinazolin-2-yl)-4-phenyl-thiazol-2-yl]-benzamide] | 0 | 2
239 to 240 | CNc1nc(-c2ccccc2)c(-c2nc3ccccc3c(=O)n2-c2ccc(C(C)=O)cc2)s1 [Example 266, 2-(2-Methylamino-4-phenyl-thiazol-5-yl)-3-(4-acetyl-phenyl)-3H-quinazolin-4-one] | 4 | 15
223 to 225 | CC(=O)c1ccc(-n2c(-c3sc(Nc4ccccc4)nc3-c3ccccc3)nc3ccccc3c2=O)cc1 [Example 267, 3-(4-acetyl-phenyl)-2-(4-phenyl-2-phenylamino-thiazol-5-yl)-3H-quinazolin-4-one] | 43 | 19
250 to 252 | CC(=O)c1ccc(-n2c(-c3sc(NC(=O)c4ccccc4)nc3-c3ccccc3)nc3ccccc3c2=O)cc1 [Example 268, N-[5-(4-Oxo-3-(4-acetyl-phenyl)-3,4-dihydro-quinazolin-2-yl)-4-phenyl-thiazole-2-yl]benzamide] | 18 | 44
266 to 267 | CC(=O)c1ccc(-n2c(-c3sc(NC(=O)c4ccc(C)cc4)nc3-c3ccccc3)nc3ccccc3c2=O)cc1 [Example 269, 4-Methyl-N-[5-(4-oxo-3-(4-acetyl-phenyl)-3,4-dihydroquinazolin-2-yl)-4-phenyl-thiazol-2-yl]-benzamide] | 27 | 1
